Experimental data: patent EP3281644A1, “STABLE FLUORESCENT NANOVESICLES, METHOD FOR OBTAINING THEM AND USES THEREOF” (Consejo Superior De Investigaciones Científicas, priority 2016, dated 2018)

How the values were obtained:
[1] = reference standard; in methanol; cited from earlier work
[2] = Photochemical decomposition quantum yield under continuous laser irradiation; format: physicochemical; conditions: free dye in EtOH; diode laser 660 nm
Experimental: Photostabilities of DiD in EtOH and of DiD-nanovesicles were analyzed by monitoring the evolution over time of absorbance of the samples under continuous laser irradiation. The data are shown in Table below and are also represented in Figure 8. Additional column in Table 1 for rows of DiD
The quantum yields of photoreaction were calculated following the method proposed by Belfield et al. "Photophysical and photochemical properties of 5,7-di-methoxycoumarin under one- and two-photon excitation". J. Phys. Org. Chem. 16, 69-78 (2003).
Sample photostability under continuous-wave excitation was determined by measuring the photochemical decomposition quantum yield. […]
Quantum yields of photochemical decomposition were measured in ethanol (for DID) and water (FI, NDB and all nanovesicle samples) using absorption and fluorescence methods, where the number of bleached molecules is determined by a kinetic decrease in absorbance or fluorescence intensity under the assumption that fluorescence and absorbance of the photoproducts are negligible in the spectral region of dye fluorescence and main absorption band. Fluorescence method was used to estimate the photostability of dilute samples (with maximum absorbance < 0.1), while photochemical decomposition quantum yields of concentrated solutions (with maximum absorbance ≈ 1) were determined by absorption method. […]

Row | Molecule | QY, Φ [1] [%] | Photodecomposition QY*10^-5 [2]
1 | cresyl violet | 56 | 
2 | CCCCCCCCCCCCCCCCCCN1C(=CC=CC=CC2=[N+](CCCCCCCCCCCCCCCCCC)c3ccccc3C2(C)C)C(C)(C)c2ccccc21.[O-][Cl+3]([O-])([O-])[O-] [DiD EtOH, 1,1'-dioctadecyl-3,3,3',3'-tetramethyl-indodicarbocyanine perchlorate] |  | <0,008 *10^-5
